In patent US12350247B2, “Use of APE1/Ref-1 inhibitors for treatment of retinal diseases” (Indiana University Research and Technology Corporation, priority 2017, dated 2025):
Where two headings read alike, the source gives them in different places.

Assays:
[1] = tested on: human carcinoma colon cell line HCT-116; assay: Alamar blue cytotoxicity combination assay (CalcuSyn); assay type: cell-based
Procedure: HTC-116 (Yunhua Liu) was seeded in a 96-well tissue culture plate at 2000 cells/well in DMEM+10% FBS and grown overnight at 37° C., 5% CO2. Drug Media DMEM+5% FBS was added at dosages of APX3330 (Apexian) in a 5-point spread from 75 uM to 6.3 uM and spiked with CPI-613 (Apexbio Technology) at 75 uM, or 50 uM, or alone for single agent. Cells were incubated for 72 hours at 37° C., 5% CO2. Media was exchanged with DMEM+5% FBS+10% Alamar blue fluorescent cell viability indicator (INVITROGEN™) and incubated 4 hours at 37° C., 5% CO2 and then read on a fluorescent reader (SYNERGY™ H4 BioTek). […] depicts Chou-Talalay Index (CI) of dose combinations (CalcuSyn). FIG. 32E depicts synergistic drug combinations (CalcuSyn) of APX3330 spiked with 50 uM CPI-613 or 75 uM CPI-613. […] Data shown is the average of 3 separate cytotoxicity assays; each assay normalized to media only control.
HTC-116 (Yunhua Liu) was seeded in a 96-well tissue culture plate at 2000 cells/well in DMEM+10% FBS and grown overnight at 37° C., 5% CO2. Drug Media DMEM+5% FBS was added at dosages of APX3330 (Apexian) from 100 uM to 0.4 uM in a 10-point spread and spiked with CPI-613 (Apexbio Technology) at 100 uM, or 75 uM, or alone for single agent. Cells were incubated for 72 hours at 37° C., 5% CO2. Media was exchanged with DMEM+5% FBS+10% Alamar blue fluorescent cell viability indicator (INVITROGEN™) and incubated 4 hours at 37° C., 5% CO2 and then read on a fluorescent reader (SYNERGY™ H4 BioTek). […] FIG. 33D depicts Chou-Talalay Index (CI) of dose combinations (CalcuSyn). FIG. 33E depicts synergistic drug combinations (CalcuSyn) of APX3330 spiked with 100 uM CPI-613 or 75 uM CPI-613. […] Data shown is the average of 3 separate cytotoxicity assays; each assay normalized to media only control.
HTC-116 (Yunhua Liu) was seeded in a 96-well tissue culture plate at 2000 cells/well in DMEM+10% FBS and grown overnight at 37° C., 5% CO2. Drug Media DMEM+5% FBS was added at dosages of APX2014 (Apexian) in a 5-point spread from 25 uM to 1.6 uM and spiked with CPI-613 (Apexbio Technology) at 75 uM, or 50 uM, or alone for single agent. Cells were incubated for 72 hours at 37° C., 5% CO2. Media was exchanged with DMEM+5% FBS+10% Alamar blue fluorescent cell viability indicator (INVITROGEN™) and incubated 4 hours at 37° C., 5% CO2 and then read on a fluorescent reader (SYNERGY™ H4 BioTek). […] FIG. 34D depicts Chou-Talalay Index (CI) of dose combinations (CalcuSyn). FIG. 34E depicts synergistic drug combinations (CalcuSyn) of APX2014 spiked with 50 uM CPI-613 or 75 uM CPI-613. Drug combination synergy could not be ascertained at APX2014 dosages when spiked with 50 uM CPI-613. […] Data shown is the average of 3 separate cytotoxicity assays; each assay normalized to media only control.
HTC-116 (Yunhua Liu) was seeded in a 96-well tissue culture plate at 2000 cells/well in DMEM+10% FBS and grown overnight at 37° C., 5% CO2. Drug Media DMEM+5% FBS was added at dosages of APX3330 (Apexian) from 100 uM to 0.4 uM in a 10-point spread and spiked with CB-839 (Sigma-Aldrich) at 1000 nM, or 500 nM, or alone for single agent. Cells were incubated for 72 hours at 37° C., 5% CO2. Media was exchanged with DMEM+5% FBS+10% Alamar blue fluorescent cell viability indicator (INVITROGEN™) and incubated 4 hours at 37° C., 5% CO2 and then read on a fluorescent reader (SYNERGY™ H4 BioTek). FIG. 35A depicts APX3330 and CB-839 single agent effects. FIG. 35B depicts APX3330 and CB-839 synergistic combo effects. […] FIG. 35E depicts synergistic drug combinations (CalcuSyn) of APX3330 spiked with 1000 nM CB-839 or 500 nM CB-839 (5-pt only). […] Data shown is the average of 3 separate cytotoxicity assays; each assay normalized to media only control.

CAFs (CAF19 cells) = assay: 3D spheroid co-culture, CAF signal (green channel); conditions: for CC50: read-out: LC50, 3D Cultures, CAFs
[2] = tested on: Pa03C and Panc10.05 tumor cells; assay: 3D spheroid / co-culture model of pancreatic cancer (both patient lines)
Procedure: Pa03C cells were plated into 3D cultures alone or with CAF19 cells.
Pa03C and Panc10.05 tumor cells were grown in 3D cultures in the presence of CAFs. Spheroids were treated with either single agents, vehicle (DMSO) or combination of targeted agents on days 4 and 8 (black arrows), and the intensity of tumor (red) and CAF (green) were quantified as described in Example 7 every 3-4 days in culture.

[3] = tested on: HCT-116 colon cancer cells; assay: Killing of colon cancer cells by APX3330 combined with CPI-613 (Example 4); assay type: cell-based, human; conditions: 0.2, 0.8, 1.6, 3.1, 6.3 μM APX3330 combined with 100 and 75 μM CPI-613
Procedure: Standard 3D co-culture assays as described in Example 2 were used to evaluate the cytotoxicity of the combination on tumor cells as well as cancer-associated fibroblasts.
As shown in FIGS. 15A-15C, there was greater than 50% killing of HCT-116 colon cancer cells using 0.2, 0.8, 1.6, 3.1, 6.3 μM APX3330 when combined with 100 and 75 μM CPI-613.

CCCCCCCCC/C(=C\C1=C(C)C(=O)C(OC)=C(OC)C1=O)C(=O)O [APX3330]
drug combination synergy (Chou-Talalay, CalcuSyn) ([1]; APX3330 75 uM and 50 uM spiked with 50 uM CPI-613, 5-point spread): synergy was observed
drug combination synergy (Chou-Talalay, CalcuSyn) ([1]; APX3330 100 uM-12.5 uM spiked with 75 uM CPI-613, 10-point spread): Synergy was observed
drug combination synergy (Chou-Talalay, CalcuSyn) ([1]; APX3330 100 uM-25 uM spiked with 1000 nM CB-839): synergy was observed
drug combination synergy (Chou-Talalay, CalcuSyn) ([1]; APX3330 100 uM-50 uM spiked with 500 nM CB-839): Synergy was observed
drug combination synergy (Chou-Talalay, CalcuSyn) ([1]; all APX3330 dosages (100 uM to 0.4 uM) spiked with 100 uM CPI-613, 10-point spread): synergy was observed
drug combination synergy (Chou-Talalay, CalcuSyn) ([1]; all but one APX3330 dosage (6.3 uM), spiked with 75 uM CPI-613, 5-point spread): Synergy was observed
area of the CAFs (CAFs (CAF19 cells); APX3330 alone, co-culture with Pa03C): reduction in the area of the CAFs
CC50 (CAFs (CAF19 cells); co-culture with Pa03C, D12 curves): 57.3 µM
CC50 (CAFs (CAF19 cells); co-culture with Panc10.05, D12 curves): 59.4 µM
tumor cell growth in combination with SLC-0111 ([2]; 3D co-cultures with CAFs, APX3330 at 50 μM, APX2009 at 10 μM, APX2014 at 0.6 μM): significantly attenuated tumor cell growth
tumor killing in combination with napabucasin ([2]; 3D spheroid model (tumor and CAF)): synergistic tumor killing effect
single agent efficacy on 3D spheroid growth ([2]; treated on days 4 and 8, FIG. 17): reduced cell growth, cell proliferation
killing of HCT-116 colon cancer cells [3]: greater than 50%
